In data set [1] the test system is CD rats. Nature of the data set: 14-consecutive day nose-only inhalation toxicity and recovery. Type of data set: in vivo, rat. The procedure:
The solution was used to generate aerosolized vancomycin for all vancomycin exposure groups.
Nose-only exposures were conducted in a “flow-past” cylindrical inhalation chamber placed inside a steel-framed Plexiglas secondary containment box. The chamber contained 48 animal ports, each compatible with a single nose-only exposure tube, aerosol concentration sampling device (e.g., filter), or oxygen monitor.
The total air flow through the exposure system was balanced to achieve individual animal port flows of ˜500 mL/min (port flow approximated based on total chamber flow). Measured flows included sample flow rate, nebulizer flow rate, dilution flow rate (chamber make-up air), and chamber exhaust flow.
Vancomycin solution was aerosolized with two Aerotech II nebulizers operated at 20 psi driving pressure. The target aerosol Vancomycin concentration for all exposure levels was ˜1.0 mg/L.
Aerosolized vancomycin was administered to 3 groups of male and female CD rats (available from Charles River Laboratories, Kingston, N.Y.) for durations of 30 min (Low), 90 min (Mid), and 180 min (High). A control group was exposed for 180 min to aerosols generated from a normal saline solution. Groups of rats from the Control and High level 14-day exposures were also studied following a 14-day recovery period. Endpoints included clinical observations, body weights, clinical pathology (hematology, clinical chemistry), urinalyses, organ weights, and histopathology.

The subject of data set [2] is beagle dogs. Nature of the data set: 14-consecutive day face mask inhalation toxicity and recovery. It counts as in vivo, dog. The procedure: Within 2 hours prior to usage, a vancomycin nebulizer solution having a concentration of 120 mg/ml was formed by dissolving vancomycin hydrochloride (available from Alpharma, Copenhagen, Denmark) in sterile water for injection USP (available from B. Braun Medical Inc., Bethlehem, Pa.). The solution was used to generate aerosolized vancomycin for all vancomycin exposure groups.
The exposure system consisted of a single, cylindrical, plexiglass inhalation chamber (volume of ˜23.7 L, 14.61-cm radius, 35.56-cm height). The chamber was supplied with two Aerotech II nebulizers operated at ˜40 psi. Nebulized test article and nebulizer air supply was diluted with ˜10 L/min HEPA-filtered dilution air. The flow through the system was ˜36 L/min.
The aerosolized vancomycin was administered via a face mask to 3 groups of male and female beagle dogs for durations of 15 min (Low), 30 min (Mid), and 60 min (High). A control group was exposed for 60 min to aerosols generated from normal saline solution, i.e., 0.9% sodium chloride injection USP (available from B. Braun Medical Inc.).
Groups of dogs from the Control and High level 14-day exposures were also studied following a 14-day recovery period. Endpoints for all groups of dogs included physical examinations, clinical observations, body weights, ophthalmology, cardiovascular EKG, clinical pathology (hematology, clinical chemistry), urinalyses, organ weights, histopathology, and toxicokinetics.

Data set [3] is described as follows: Aerosol particle size distribution by laser diffraction. Type of data set: physicochemical. The following applies: solutions in WFI 60-140 mg/ml, fill 2-4 ml.
Description: Droplet size distributions for aerosolized drug and placebo solutions were measured using the Sympatec HELOS laser diffraction spectrometer. In preparation for a run, the nebulizer was connected to the compressed air line, the flow turned on and the pressure regulator set to a driving pressure to generate a flow rate of 8 LPM through the nebulizer. The flow was then turned off by closing the flow shut-off valve. Next, the nebulizer was connected to a “T” piece with one port plugged, and the other port coupled to a mouthpiece. The nebulizer was then filled with drug solution, and mounted so that nebulizer mouthpiece was aligned parallel to the nozzle of the Rodos dry powder disperser apparatus already installed in the spectrometer. The laser diffraction system was setup to automatically trigger when it sensed the presence of the aerosol generated by the nebulizer. Measurements were initiated by opening the shut-off valve to pressurize the nebulizer and generate the aerosol. A total of 6 particle size distribution scans were taken for each nebulizer run, and then averaged to provide representative size distribution results.

The results in this text go back to patent publication US9351929B2, “Antibiotic formulations, unit doses, kits, and methods” (Bayer Intellectual Property GMBH, priority 2005, dated 2016).

Counter-ions that a name gives are not always drawn.

Consider `CN[C@H](CC(C)C)C(=O)N[C@H]1C(=O)N[C@@H](CC(N)=O)C(=O)N[C@H]2C(=O)N[C@H]3C(=O)N[C@H](C(=O)N[C@H](C(=O)O)c4cc(O)cc(O)c4-c4cc3ccc4O)[C@H](O)c3ccc(c(Cl)c3)Oc3cc2cc(c3O[C@@H]2O[C@H](CO)[C@@H](O)[C@H](O)[C@H]2O[C@H]2C[C@](C)(N)[C@H](O)[C@H](C)O2)Oc2ccc(cc2Cl)[C@H]1O` [Vancomycin HCl, vancomycin hydrochloride], for which the “mass median aerodynamic diameter of exposure aerosol” value in data set [1] (120 mg/ml solution, Aerotech II nebulizers, 20 psi) is given as 2.0-2.6 μm; in data set [2] (120 mg/ml solution, Aerotech II nebulizers, ~40 psi), 1.9-2.6 μm. Also, the “no observed effect level” value in data set [1] (rat, 14-day inhalation) is recorded as “not established”. Also, in data set [1] (rat, 14-day inhalation), the “serum indicators of kidney function or urinalysis” value is given as “No vancomycin related changes”. In addition, the lung weight increase was ~19 % of control in data set [1] (rat, High exposure level (180 min), 14 days); “approximately 8 % of control” in data set [1] (rat, Low exposure level (30 min), 14 days); ~20 % of control in data set [1] (rat, Mid exposure level (90 min), 14 days). In data set [1] (rat, High level, 14 days of recovery), the “histopathologic findings after recovery” value was “substantial diminution of these findings”. For the same compound, the “neutrophils (hematology)” value in data set [1] (rat, Mid and High exposure levels) is “statistically significant increase”. The “exposure related histopathologic findings” value in data set [1] (rat, end of 14-day exposure) is reported as “limited to the respiratory tract”. Also, the tolerability result was “well-tolerated by all groups of rats” in data set [1] (rat, inhalation 30, 90, 180 min/day, 14 days) and “well-tolerated by all groups of dogs” in data set [2] (dog, face mask 15, 30, 60 min/day, 14 days). In addition, the body weight result in data set [1] (rat, inhalation 14 days) was “no vancomycin treatment related effects”. Further, the clinical observations entry in data set [1] (rat, inhalation 14 days) is “no vancomycin related effects”. Also, the survival result is “All rats survived to scheduled necropsy” in data set [1] (rat, inhalation 14 days, all groups) and “All dogs survived to scheduled necropsy” in data set [2] (dog, 14 days, all groups). Also, the “physical examinations, clinical observations, ophthalmology, ECG, hematology, clinical chemistry, urinalyses, gross necropsy, organ weights” value in data set [2] (dog, 14-day inhalation) is recorded as “no vancomycin related effects”. Moreover, in data set [2] (dog, High level, 14-day recovery), the “recovery of histopathological effects” value was “complete after 14 days”. Further, the histopathology entry in data set [2] (dog, end of 14-day exposure) was “limited to microscopic findings in the lung”. For the same compound, the “volume weighted median size of aerosol” value in data set [3] is 2-3 μm.
